{"source": "patent US20060116360A1", "about": "“Method of administering anti-angiogenic agents and a method of treating disease using same” (priority 2004, published 2006)", "key": {"[1]": {"tested_on": "vascular endothelial cell proliferation", "conditions": "endothelial versus tumor cell proliferation; cited from earlier work"}, "Lewis lung carcinoma": {"tested_on": "Lewis lung carcinoma", "test": "Lewis lung carcinoma experimental pulmonary metastasis model", "format": "in vivo, mice", "conditions": "for antitumor activity, T/C: 100 mg/kg/day", "from_the_text": "A pharmacodynamic paradigm relating 2ME2 pharmacokinetics to activity in vivo was developed. Dose-response relationships were established for 2ME2 following administration by (a) i.v. bolus administration, (b) oral gavage, (c) i.p. bolus injection, (d) i.p. dose fractionation, (e) continuous i.p. infusion, or (f) drinking water ad libitum in animal models, including an experimental pulmonary metastatic Lewis lung carcinoma model, primary tumor cell xenograft models, and a model of rheumatoid arthritis. Plasma 2ME2 concentration was temporally assessed by GC-MS or LC-MS/MS methodology, and pharmacokinetic parameters were defined at effective doses.\nThese studies assess the effect of route of administration on the anti-tumor activity of 2ME2 in an orthotopic model of murine lung cancer. Three days following the intravenous injection of Lewis lung carcinoma (“LLC”), groups of ten mice were treated with 2ME2 (200 mg/kg) once every 24 hours (q.d.) by either oral gavage (p.o.) or intraperitoneal (i.p.) injection.\nFIG. 1, Panel B: 2.5×10^5 Lewis lung carcinoma cells in a volume of 0.2 ml were i.v. injected into the lateral tail vein of C57BL/6 male mice, 5-6 weeks of age (Jackson Labs). Treatment was initiated three days later by daily i.v. injection with 2ME2. Following the final day of therapy, mice were sacrificed, lungs removed, washed in phosphate buffered saline and weighed. Results are expressed as lung weight gain in treated versus control animals.\nDose-dependent inhibition of pulmonary metastases was observed following daily bolus administration of 2ME2. Fractionating a bolus q.d. injection (once every 24 hours, 2 mg/injection, 100 mg/kg/day) into four smaller, equal doses (q6hr, 0.5 mg/injection, 100 mg/kg/day) improved the antitumor activity of 2ME2 (T/C=0.30 and 0.05, respectively, p<0.05).\n(§1) In further support of this paradigm, a significant inhibition of pulmonary metastases was obtained in tumor-bearing mice given 2ME2 by continuous infusion using Alzet pumps. Three days after injection of LLC cells, therapy was initiated i.p. with either vehicle control or with 2ME2 delivered through 7-day osmotic pumps (see FIG. 3A). The daily target levels of 2ME2 were calculated assuming an average pump rate of […]. To achieve a target level of 200 mg/kg/day, the concentration of 2ME2 in the osmotic pumps was prepared at 150 mg/mL. Asterisks indicate groups statistically different from vehicle control (α=0.05) as shown in A. To determine the PK profile of 2ME2 using this delivery scheme, non-tumor bearing male C57BL/6 mice (6 weeks of age) were treated i.p. for up to 7 days with 2ME2 at 1.8 mg/day (˜100 mg/kg/day) using 7-day osmotic pumps. On days 2, 4, and 7, plasma samples were collected and plasma 2ME2 levels were determined as described above (see FIG. 3B).\nIn further support of this paradigm, a significant inhibition of pulmonary metastases was obtained in tumor-bearing mice given 2ME2 ad libitum access through their drinking water."}, "[2]": {"test": "Plasma 2ME2 pharmacokinetics in non-tumor bearing C57BL/6 mice", "format": "in vivo", "conditions": "for Cmin / Tmax / T½ / Cmax / AUC0-24: i.p.", "method": "On day 7, plasma samples were collected at selected time points, and plasma unconjugated 2ME2 levels were determined using LC-MS/MS methodology.\nThe data for 0.5 mg q.i.d. over the first six hours was used to model steady state levels over a 24 hr. time period as shown in FIG. 2. Pharmacokinetic parameters were determined by noncompartmental analysis using WinNonLin (Pharsight, Mountain View, Calif.).\nas §1"}, "LLC cell line": {"tested_on": "LLC cell line", "test": "Wash-out in vitro proliferation study mimicking i.v. dosing", "format": "cell-based", "conditions": "3microM 2ME2 for 2 hours, then medium alone", "method": "FIG. 1, Panel C: We designed a “wash-out” in vitro proliferation study to mimic the exposure profile following i.v. dosing. The LLC cell line was plated in 96-well plates. After 24 hours, medium containing 3microM 2ME2 was added. Cells were exposed to 3microM 2ME2 for 2 hours. The medium was then removed and replaced with medium alone (medium: DMEM/F12 (1:1)+10% FBS+2mM L-Glutamine)."}, "[3]": {"tested_on": "Tumor cell lines (Lewis lung carcinoma or MDA-MB-231)", "test": "Wash-out in vitro anti-proliferation studies (BrdU) with 2ME2", "format": "cell-based", "method": "To mimic the effect of cyclic levels of 2ME2 seen after daily dosing, and to compare this to the effects of continuous exposure to 2ME2, we carried out a series of wash-out in vitro anti-proliferation studies. Tumor cell lines (Lewis lung carcinoma or MDA-MB-231) were treated in vitro for varying times with varying concentrations of 2ME2. Over the course of a three-day study, on each study day the cells were exposed to 2ME2 for varying times (1, 2, 4, 6, or 24 hours) at the indicated concentrations. The medium was then removed and replaced with medium without 2ME2 for the remainder of each 24-hour period. Anti-proliferative activity was determined using a BrdU proliferation assay according to the manufacturer's instructions after the third day of treatment (see FIGS. 4A and 4B)."}, "H2122 human NSCLC cells": {"tested_on": "H2122 human NSCLC cells", "test": "Orthotopic H2122 NSCLC rat tumor model, survival", "format": "in vivo, rats", "method": "Female athymic nude rats were injected i.t. with H2122 human NSCLC cells (1×10^6 in 0.2 mL). Seven days later, daily therapy was initiated p.o. with either vehicle control or 2ME2 at 10 or 60 or 300 mg/kg/d (n=15 rats/group). Animals were monitored closely for signs of morbidity and median survival times (MST) were determined. The study was terminated 50 days post tumor cell injection. In a separate cohort of non-tumor-bearing rats, plasma 2ME2 concentrations were determined at selected time points following a single oral gavage at 60 and 300 mg/kg. The PK data in Table 3 represents the range of 2ME2 concentrations in a 24 hour period. […] Using relevant PK data for any given formulation in a human or animal, it is possible for one skilled in the art to devise a dosing strategy—a combination of dose level and dose frequency—which will result in substantially continuous maintenance of the plasma level of the agent within the desired concentration range and so maximize the pharmacological activity, in this case anti-tumor activity."}, "[4]": {"tested_on": "collagen-induced arthritis", "test": "Rat collagen-induced arthritis model, radiographic scores", "format": "in vivo", "from_the_text": "Using relevant PK data for any given formulation in a human or animal, it is possible for one skilled in the art to devise a dosing strategy-a combination of dose level and dose frequency-which will result in substantially continuous maintenance of the plasma level of the agent within the desired concentration range and so maximize the pharmacological activity, in this case anti-arthritic or anti-inflammatory activity."}, "[5]": {"test": "Plasma 2ME2 pharmacokinetics in non-tumor bearing C57BL/6 mice", "format": "in vivo", "conditions": "ad libitum drinking water, range over a 24 hr period"}, "[6]": {"tested_on": "Tumor cell lines (Lewis lung carcinoma or MDA-MB-231)", "test": "Wash-out in vitro anti-proliferation studies (cell counts) with ENMD-1198", "format": "cell-based", "method": "Tumor cell lines (Lewis lung carcinoma or MDA-MB-231) were treated in vitro for varying times with varying concentrations of ENMD-1198. Over the course of a three-day study, on each study day the cells were exposed to ENMD-1198 for varying times (1, 2, 4, 6, or 24 hours) at the indicated concentrations. The medium was then removed and replaced with medium without ENMD-1198 for the remainder of each 24-hour period. For the 24-hour exposure wells, the medium was changed every day to provide 72 hours continuous exposure. Anti-proliferative activity was determined by cell counts after the third day of treatment."}, "[7]": {"conditions": "0.5 q.i.d., modelled from first six hours"}, "[8]": {"conditions": "short-term incubation, even at high concentrations"}}, "note": "“Also recorded” adds a separate entry of the source. Marks after values point to notes of the source that are not given here."}
{"compound": "CO[C@@H]1[C@H](OC(=O)NC(=O)CCl)CC[C@]2(CO2)[C@H]1[C@@]1(C)O[C@@H]1CC=C(C)C", "note": "[AGM-1470]", "values": [{"measurement": "lower concentration for half-maximal inhibition of vascular endothelial cell proliferation than of tumor cell proliferation", "setting": "[1]", "value": 4, "unit": "logs"}]}
{"compound": "COc1cc2c(cc1O)CC[C@@H]1[C@@H]2CC[C@]2(C)[C@@H](O)CC[C@@H]12", "note": "[Formulation 2ME2, 2-methoxyestradiol]", "values": [{"measurement": "inhibition of pulmonary metastases, T/C", "setting": "Lewis lung carcinoma; 2ME2 200 mg/kg q.d. i.p. injection", "value": 0.17}, {"measurement": "inhibition of pulmonary metastases, T/C", "setting": "Lewis lung carcinoma; 2ME2 200 mg/kg q.d. oral gavage (p.o.)", "value": 0.28}, {"measurement": "inhibition of pulmonary metastases, T/C", "setting": "Lewis lung carcinoma; 2ME2 ad libitum through drinking water", "value": 0.16}, {"measurement": "antitumor activity, T/C", "setting": "Lewis lung carcinoma; bolus q.d., 2 mg/injection", "value": 0.30}, {"measurement": "growth inhibition of pulmonary metastases", "setting": "Lewis lung carcinoma; continuous i.p. infusion, Alzet osmotic pumps, calculated dose ~100 mg/kg/day", "value": 89, "unit": "%"}, {"measurement": "anti-tumor activity in vivo (lung weight gain)", "setting": "Lewis lung carcinoma; daily i.v. injection, transiently high levels", "value": "did not result in significant anti-tumor activity"}, {"measurement": "antitumor activity, T/C", "setting": "Lewis lung carcinoma; q6hr, 0.5 mg/injection", "value": 0.05}, {"measurement": "Cmin", "setting": "[2]; 0.5 q.d., day 7", "value": 1.46, "unit": "ng/mL"}, {"measurement": "Tmax", "setting": "[2]; 0.5 q.d., day 7", "value": 0.5, "unit": "h"}, {"measurement": "T½", "setting": "[2]; 0.5 q.d., day 7", "value": 1.1, "unit": "h"}, {"measurement": "Cmax", "setting": "[2]; 0.5 q.d., day 7, plasma unconjugated 2ME2", "value": 325, "unit": "ng/mL"}, {"measurement": "AUC0-24", "setting": "[2]; 0.5 q.d., day 7, = AUC0-6*4", "value": "826.5^a ng/mL*hr"}, {"measurement": "AUC0-24", "setting": "[2]; [7]", "value": 836.1, "unit": "ng·h/mL"}, {"measurement": "Cmin", "setting": "[2]; [7]", "value": 1.50, "unit": "ng/mL"}, {"measurement": "Tmax", "setting": "[2]; [7]", "value": 18.5, "unit": "h"}, {"measurement": "T½", "setting": "[2]; [7]", "value": 1.1, "unit": "h"}, {"measurement": "Cmax", "setting": "[2]; 0.5 q.i.d., steady state over 24 hr modelled from first six hours", "value": 326.09, "unit": "ng/mL"}, {"measurement": "AUC0-24", "setting": "[2]; 2.0 q.d., day 7", "value": 13570.9, "unit": "ng·h/mL"}, {"measurement": "Cmax", "setting": "[2]; 2.0 q.d., day 7", "value": 14070, "unit": "ng/mL"}, {"measurement": "Cmin", "setting": "[2]; 2.0 q.d., day 7", "value": 0.86, "unit": "ng/mL"}, {"measurement": "Tmax", "setting": "[2]; 2.0 q.d., day 7", "value": 0.5, "unit": "h"}, {"measurement": "T½", "setting": "[2]; 2.0 q.d., day 7", "value": 3.2, "unit": "h"}, {"measurement": "plasma exposure levels", "setting": "[2]; continuous i.p. infusion, Alzet osmotic pumps, ~100 mg/kg/day", "value": "9 to 25", "unit": "ng/mL"}, {"measurement": "anti-proliferative effect of transient exposure", "setting": "LLC cell line", "value": "poor anti-proliferative effect; also recorded: did not result in much anti-proliferative activity"}, {"measurement": "inhibition of proliferation in vitro", "setting": "[3]; continuous exposure", "value": "maximal inhibition of proliferation"}, {"measurement": "anti-proliferative activity in vitro", "setting": "[3]; [8]", "value": "does not result in much anti-proliferative activity"}, {"measurement": "% Survival on Day 50", "setting": "H2122 human NSCLC cells; 2ME2 10 mg/kg/d p.o.", "value": 13, "unit": "%"}, {"measurement": "Median Survival Time", "setting": "H2122 human NSCLC cells; 2ME2 10 mg/kg/d p.o.", "value": 18.5, "unit": "days"}, {"measurement": "% Survival on Day 50", "setting": "H2122 human NSCLC cells; 2ME2 60 mg/mk/d p.o.", "value": 20, "unit": "%"}, {"measurement": "Median Survival Time", "setting": "H2122 human NSCLC cells; 2ME2 60 mg/mk/d p.o.", "value": 26, "unit": "days"}, {"measurement": "% Survival on Day 50", "setting": "H2122 human NSCLC cells; 2ME2 300 mg/kg/d p.o.", "value": 47, "unit": "%"}, {"measurement": "Median Survival Time", "setting": "H2122 human NSCLC cells; 2ME2 300 mg/kg/d p.o.", "value": 43, "unit": "days"}, {"measurement": "increase in median survival time as compared to diluent-treated controls", "setting": "H2122 human NSCLC cells; oral gavage, plasma 2ME2 3-17 ng/mL", "value": 2.5, "unit": "fold"}, {"measurement": "radiographic scores on day 28", "setting": "[4]; 2ME2 50 mg/kg p.o. b.i.d", "value": "2.11±0.18"}, {"measurement": "radiographic scores on day 28", "setting": "[4]; 2ME2 60 mg/kg s.c. continuous infusion (Alzet pumps)", "value": "1.5±0.18"}, {"measurement": "radiographic scores on day 28", "setting": "[4]; 2ME2 100 mg/kg p.o. q.d.", "value": "2.88±0.21"}, {"measurement": "plasma 2ME2 concentrations", "setting": "[5]", "value": "3 to 15", "unit": "ng/mL"}]}
{"compound": "COc1cc2c(cc1C(N)=O)CC[C@@H]1[C@@H]2CC[C@]2(C)C=CC[C@@H]12", "note": "[ENMD-1198]", "values": [{"measurement": "inhibition of proliferation in vitro", "setting": "[6]; continuous exposure (72 hours)", "value": "maximal inhibition of proliferation"}, {"measurement": "anti-proliferative activity in vitro", "setting": "[6]; [8]", "value": "does not result in much anti-proliferative activity"}]}
